Entries after “also recorded” stand apart in the source; their conditions may differ.
Tests used:
[1] = system: CRF1+ neurons in the central nucleus of the amygdala (CeA); test: Electrophysiology, mIPSCs of CRF1+ neurons in CeA slices; set-up: species or system mouse
[2] = system: VTA dopamine neurons, NMDAR EPSCs; test: Electrophysiology, NMDAR EPSCs of VTA dopamine neurons in slices; set-up: species or system mouse; conditions: CRF 1 μM, VTA-DA neurons, male and female mice

CC[C@H](C)[C@H](NC(=O)[C@@H](NC(=O)[C@H](CCC(=O)O)NC(=O)[C@H](CCSC)NC(=O)[C@H](CC(C)C)NC(=O)[C@H](CCCCN)NC(=O)[C@H](CCCNC(=N)N)NC(=O)[C@H](CC(N)=O)NC(=O)[C@H](CO)NC(=O)[C@H](Cc1c[nH]cn1)NC(=O)[C@H](C)NC(=O)[C@H](CCC(N)=O)NC(=O)[C@H](CCC(N)=O)NC(=O)[C@H](C)NC(=O)[C@H](CC(C)C)NC(=O)[C@H](CCC(N)=O)NC(=O)[C@H](CCC(=O)O)NC(=O)[C@H](C)NC(=O)[C@H](CCCNC(=N)N)NC(=O)[C@H](C)NC(=O)[C@H](CCSC)NC(=O)[C@H](CCC(=O)O)NC(=O)[C@H](CC(C)C)NC(=O)[C@@H](NC(=O)[C@H](CCC(=O)O)NC(=O)[C@H](CCCNC(=N)N)NC(=O)[C@H](CC(C)C)NC(=O)[C@H](CC(C)C)NC(=O)[C@H](Cc1c[nH]cn1)NC(=O)[C@H](Cc1ccccc1)NC(=O)[C@@H](NC(=O)[C@H](CC(C)C)NC(=O)[C@H](CC(=O)O)NC(=O)[C@H](CC(C)C)NC(=O)[C@H](CO)NC(=O)[C@@H](NC(=O)[C@@H]1CCCN1C(=O)[C@@H]1CCCN1C(=O)[C@H](CCC(=O)O)NC(=O)[C@H](CCC(=O)O)NC(=O)[C@@H](N)CO)[C@@H](C)CC)[C@@H](C)O)C(C)C)[C@@H](C)CC)C(N)=O [CRF, corticotropin releasing factor]
Change in mIPSC properties by CRF after pre-treatment [1]: did not induce changes; also recorded: do not produce significant changes
Effect of CRF on NMDA receptor EPSCs [2]: potentiated
